Reference: patent US10457961B2, “Chimeric proteins and methods of regulating gene expression” (The Board of Trustees of the Leland Stanford Junior …, priority 2016, dated 2019)

Columns and labels:
luciferase reporter gene = assay: Luciferase reporter activation by chimeric CXCR4-dCas9-VPR in HEK293 cells; assay type: cell-based, human
Text: FIGS. 23A and 23B show the results from three independent experiments testing the activity of a chimeric CXCR4-dCas9-VPR-mCherry 2301 in host cells, e.g., HEK293 cells. After ligand binding 2311, the β2-arrestin-protease was recruited to the activated receptor and the protease released the dCas9-VPR-mCherry from the receptor 2321. The expression construct for the β2-arrestin-protease is shown as 2351. The reporter construct is shown in 2341. In each experiment, the dCas9-VPR was paired with a single guide RNA (sgRNA) that specifically activates luciferase expression, which in turn generates luminescence. In this experiment a sgRNA-BFP was used 2331. In some experiments, a scFv-mCherry-VPR 2305 and/or a dCas9-10×GCN4 2307 was used as a control.
The CXCR4-dCas9-VPR-mCherry 2361 was conditionally expressed from a doxycycline-inducible promoter (TRE3G), such that only addition of doxycycline (Dox) and the presence of a co-activator can trigger expression of the recombinant receptor. Without Dox, there is no luminescence (FIG. 23B). […] Upon Dox addition, chimeric CXCR4-dCas9 was expressed, and luminescence was detected. […] Chimeric GPCR-dCas9 proteins described herein can be expressed in immune cells such as T cells and macrophages. Also, chemotactic experiments can be performed to determine if CXCL12 can serves as a chemoattractant to T cells expressing the chimeric GPCR-dCas9 proteins. […]

GFP reporter = GFP reporter activation by chimeric GPCR-dCas9-VPR receptors in HEK293T cells; assay type: cell-based, human; conditions: sgRNA and β2-arrestin-protease; presence of ligand (LPA, SDF1, or CNO) compared to absence of ligand
Text: The released dCas9-VPR was then targeted by sgRNA to a target polynucleotide to alter expression levels of a GFP reporter.

pTET-EGFP reporter = assay: EGFP reporter activation by dCas9-VPR iNLS variants in HEK293 pTET-EGFP sgTET cells; assay type: cell-based, human
Text: Cas9 found at amino acid residues 647-670. […] Representative histograms of EGFP activation in the presence or absence (bottom) of constructs and quantification of EGFP activation (normalized to untransfected cells) is shown (SEQ ID NO: 31, 32). […] FIGS. 35C and 35D show visually by microscopy and quantitatively that adding a synthetic NLS to the N-terminus of iNLS-mutated dCas9-VPR partially restores EGFP activation.
Cas9. This iNLS sequence ([…] (SEQ ID NO: 31)) of amino-acid residues was mapped to a helix-linker-helix motif in the crystal structure of S. py. Cas9. […] Mutating 6 arginine or lysine residues of the iNLS to alanines ([…] (SEQ ID NO: 32)) in a dCas9-VPR-mCherry construct impaired EGFP activation (from 18-fold down to 4-fold) in HEK293 reporter cells. […] Disrupting this iNLS motif by mutating arginine and lysine residues to alanines […] […] Representative histograms of EGFP reporter are shown to the right; percentage of cells considered ‘ON’ had reporter intensities above untransfected ‘OFF’ cells.

[1] = tested on: UAS promoter controlling H2B-citrine reporter gene; assay: Delta-dependent H2B-citrine reporter activation in CHO UAS-H2B cells with sgUAS; assay type: cell-based, Chinese hamster
Experimental: A fusion construct, NC1, was created by replacing the NICD from human NOTCH1 with the Streptococcus pyogenes dCas9 fused to a tripartite activation domain (VP64, p65, and Rta) (FIG. 31B) with three copies of a nuclear localization signal (NLS) sequence. The construct was fluorescently tagged with mCherry to determine its subcellular distribution. Next, it was determined how the NC1 fusion construct responded to extracellular Delta ligands when transfected in mammalian cells. A Chinese hamster ovary (CHO) reporter cell line was used that was previously developed to dissect Notch-Delta signaling (Sprinzak, D. et al. Cis-interactions between Notch and Delta generate mutually exclusive signalling states. Nature 465, 86-90, doi:10.1038/nature08959 (2010)). The CHO cell line contained an inducible UAS (upstream activating sequence) promoter controlling the citrine (YFP)-tagged reporter gene, histone 2B (H2B). sgRNAs (sgUAS) were stably expressed via lentiviral transduction that allow cleaved dCas9 to bind to the UAS promoter (see Table 6). […] By imaging the fluorescence of nucleus-bound H2B-citrine, it was determined whether NC1 induced H2B expression upon exposure to surface-adsorbed Delta (FIG. 31C). […]
(§1) Cells were trypsinized and analyzed for reporter fluorescence or protein immunofluorescence using a Scanford FACScan analyzer (Becton Dickinson) and standard protocols. […]

tet-inducible EGFP gene = assay: EGFP activation in HEK293T tet-inducible EGFP sgTET reporter cells on immobilized Delta; assay type: cell-based, human; conditions: cells cultured without Delta, and DAPT-treated cells with the highest Delta concentration, 3 days
Experimental: Activation of NC5 receptors by immobilized Delta ligand leads to cleavage and nuclear translocation of dCas9-VPR. dCas9-VPR complexed with a sequence-specific sgRNA (e.g., sgTET) allows for binding of the complex to the (e.g., TET) promoter and activation of EGFP gene (FIG. 31G). […] Cells transfected with dCas9-VPR or NC5 receptor (with or without the γ-secretase inhibitor, DAPT) were cultured with or without immbolized Delta for 3 days. Percentage of activated cells (ON %) is also indicated. Cells are considered ON above the basal intensity of all cells with no construct. […] Mean fold change compared to DAPT-treated condition is indicated.
Surface adsorption of Delta: Experiments described in this example were performed with cells plated on 24- or 48-well plates (Corning) at 1.5×10^4 cells/mL. […] For experiments with CHO cells, 5 μg/mL of hamster fibronectin (Innovative Research) was also adsorbed together with Delta.
Cells were trypsinized and analyzed for reporter fluorescence or protein immunofluorescence using a Scanford FACScan analyzer (Becton Dickinson) and standard protocols. For intracellular proteins, cells were trypsinized and fixed in 4% paraformaldehyde solution for 15 minutes, were incubated for 2 h at room temperature with the appropriate primary antibody in a solution of 0.3% Triton-X 100 (Sigma) with 2% normal donkey serum (Thermo Fisher) in PBS. […]

[2] = tested on: cyclin-dependent kinase inhibitor 1B (CDKN1B); assay: Delta-dependent CDKN1B upregulation and G0/G1 arrest in HEK293 sgCDKN1B cells; assay type: cell-based, human
Text: Combining the ability to route native extracellular signals with the discriminatory power of sgRNA-mediated Cas9 binding to virtually any genomic target opens up an exponential amount of signaling pathways and functions (FIG. 32A). The Notch chimeric receptors disclosed herein were used to elicit a novel Delta-dependent arrest of the cell-division cycle. HEK293 cells were stably transduced with lentivirus-packaged sgRNAs that specifically target cyclin-dependent kinase inhibitor 1B (CDKN1B), an endogenous regulator of the cell cycle. […] NC5 was transfected into HEK293 cells stably expressing sgRNAs for CDKN1B (sgCDKN1B) and the cells were subsequently introduced onto bare or Delta-containing surfaces. […] 38% of Delta-exposed, NC5-transfected, and sgCDKN1B^+ cells were determined to be sequestered at the G0/G1 phase, and only 2-16% of cells in all other conditions tested. […]
as §1

[3] = tested on: CDKN1B (cyclin-dependent kinase inhibitor 1B); assay: CDKN1B upregulation and cell cycle arrest with minimal NC5 variants in HEK293T cells; assay type: cell-based, human; conditions: cells with minimal NC5 receptor variant and sgCDKN1B
Text: Minimal NC5 receptor variants were used to elicit Delta-dependent arrest of the cell cycle (FIG. 39A). CDKN1B (cyclin-dependent kinase inhibitor 1B) was targeted in HEK293T cells with sgRNAs (sgCDKN1B). CDKN1B overexpression leads to cellular arrest at the G0/G1 phase (FIG. 39B). […] The Delta-induced CDKN1B upregulation and G0/G1 arrest in cells was abrogated with DAPT (FIGS. 39E and 39F).

[4] = tested on: 12xCSL promoter H2B-citrine reporter; assay: H2B-citrine reporter driven by 12xCSL promoter in CHO cells with sasgCSL; assay type: cell-based, Chinese hamster; conditions: with S. aureus-specific sgRNA (sasgCSL)
Text: Chimera modularity was further explored by testing another Cas9 ortholog in a similar reporter assay (H2B-citrine driven by a 12×CSL promoter that also allows wild-type NICD to bind). A Staphylococcus aureus dCas9 was introduced in the NC5 design. This resulting S. au.
All cell lines used in FIGS. 31A-31F were based on the cell line T-Rex-CHO-K1 (Invitrogen). Stable cell clones of UAS-H2B-citrine and 12×CSL-H2B-citrine were obtained. Additional cell lines were generated from lentiviral transduction (of all sgRNAs and SV40-EGFP) or plasmid transfection using TransIT-LT1 reagent (Minis Bio) per manufacturer's instructions, followed by appropriate antibiotic selection and maintenance. Stably transfected clones expressing NC5 and sgUAS in the UAS-H2B-citrine line were isolated by FACS, after 2 weeks of puromycin and geneticin selection. All CHO cell lines were grown in Alpha MEM with Earle's Salts (Irvine Scientific) supplemented with 10% Tet System Approved FBS (Clontech), 100 U/mL of penicillin and streptomycin, 2 mM L-glutamine (Gibco) and 10 μg/mL blasticidin (VWR International) at 37° C. with 5% CO2 in a humidified incubator.
Surface adsorption of Delta: Experiments described in this example were performed with cells plated on 24- or 48-well plates (Corning) at 1.5×10^4 cells/mL. […]

## CXCR4-dCas9-VPR: CXCR4-V2 tail-TEV cleavage site-dCas9-VPR-NLS-mCherry, SEQ ID NO:3
Luciferase reporter gene; HEK293 cells, sgRNA activating luciferase, receptor induced with doxycycline
  luminescence (luciferase reporter): sensitive to increasing concentrations of the CXCR4 ligand, CXCL12
Luciferase reporter gene; sgTET, TetO promoter, β2-arrestin-protease
  transcription of luciferase gene: regulated by CXCL2 binding
GFP reporter
  levels of GFP reporter protein: increased levels of GFP reporter protein

## mutated-iNLS variant: dCas9-VPR-mCherry with 6 arginine or lysine residues of the iNLS mutated to alanines (SEQ ID NO: 32) (VMAQLKAAAYTGWGRLSAALINGI)
pTET-EGFP reporter; HEK293T cells, confocal microscopy
  nuclear localization and EGFP reporter activation: severely impaired nuclear localization and EGFP reporter activation
pTET-EGFP reporter; HEK293 reporter cells
  percentage of cells that activate EGFP: ~16%
pTET-EGFP reporter; HEK293 reporter cells, normalized to untransfected cells
  EGFP activation: 4 fold
pTET-EGFP reporter; synthetic NLS added back to the N-terminus
  EGFP activation: partially restored EGFP activation

## NC5: hNECD-dCas9-VPR-mCherry with LMAN1 MMS sequence at the C-terminus, no synthetic NLS
[1]; CHO reporter cells with NC5 and sgUAS stably integrated, single clone
  H2B activation in response to Delta: Three-fold
[1]; transfected CHO UAS-H2B-citrine sgUAS cells, bare or Delta-coated surface, 4 days
  H2B expression with or without Delta: exhibited Delta-dependent activation of H2B
tet-inducible EGFP gene
  EGFP activation: did not activate EGFP
[2]; 4 days on Delta, compared to bare-surface, untransfected controls
  upregulation of CDKN1B: > 2 fold
[2]; Delta-exposed, NC5-transfected, sgCDKN1B+ cells
  cells sequestered at the G0/G1 phase: 38%

## C[C@H](NC(=O)Cc1cc(F)cc(F)c1)C(=O)N[C@H](C(=O)OC(C)(C)C)c1ccccc1 [DAPT]
[3]
  Delta-induced CDKN1B upregulation and G0/G1 arrest: abrogated

## S. au. NC5 dCas9 variant: NC5 design with Staphylococcus aureus dCas9
[4]
  Delta-dependent activation levels of H2B-citrine: exhibited Delta-dependent activation levels similar to wild-type human NOTCH1
